Assay results taken from PMC2758489 (Journal of neurochemistry, 2009).

Biological target: tau (Homo sapiens, UniProt P10636, P618L)
Test: heparin-induced fibrillization, ThT fluorescence
Assay type: biochemical

Chain of tau (P10636 561-689 P618L): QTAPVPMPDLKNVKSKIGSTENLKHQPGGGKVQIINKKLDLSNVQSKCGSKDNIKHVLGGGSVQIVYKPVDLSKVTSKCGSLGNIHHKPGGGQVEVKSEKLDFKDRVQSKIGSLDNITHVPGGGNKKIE

Row | IC50 [µM] | SMILES
1 | ~3.5 | C/C=C(/C=O)[C@H](CC=O)CC(=O)OCCc1ccc(O)cc1 [(+)-oleocanthal]
2 | ~2.9 | C/C=C(/C=O)[C@@H](CC=O)CC(=O)OCCc1ccc(O)cc1 [compound 1, (-)-oleocanthal]
